Key:
Type in all cases: in vivo
[1] = tested on: STZ mice; test: Blood glucose in mouse pancreatic islet β-cell injury model (Example 1); details: STZ ICR mice; single administration 0.02 g/kg per day by gavage, two weeks; 1 h after last administration
Text: Effects of a Limonoid Compound, Metformin or a Combination Thereof on Blood Glucose in a Mouse Pancreatic Islet β-Cell Injury Model In this example, a mouse pancreatic islet β-cell injury model was established by modeling ICR mice with streptozotocin (STZ) (referred to the prior art literature: Li Nan et al., Protective effect of pine pollen on kidney damage in diabetic nephropathy mice, Science and Technology Review, 2014, 32 (4/5): 95-99), and used to complete the evaluation of hypoglycemic effect in animals (this model could simulate pancreatic islet β-cell damage state of type I and type II diabetics). […] Conditions of experimental feeding: ICR mice (20±2 g), aged 6 weeks, purchased from Zhejiang Academy of Medical Sciences, and subjected to experimental feeding after 7 days of preliminary feeding. […] The experimental feed was mouse growth-stable feed (GB […]), and the daily feeding and management of the animals were under the responsibility of the animal security department, which provided the animals with sufficient padding and fresh drinking water daily. Experimental grouping: 15 male mice were randomly selected as the normal control group. […] Gavage doses: the gavage dose was 0.02 g/kg per day for the limonin group, the gavage dose was 0.02 g/kg per day for the isolimonic acid group, the gavage dose was 0.02 g/kg per day for the limonin 17-β-D-glucopyranoside group, the gavage dose of metformin was 0.02 g/kg per day for the metformin group, limonin at a dose of 0.01 g/kg and metformin at a dose of 0.01 g/kg were simultaneously gavaged per day for the limonin/metformin combination group, isolimonic acid at a dose of 0.01 g/kg and metformin at a dose of 0.01 g/kg were simultaneously gavaged per day for the isolimonic acid/metformin combination group, limonin 17-β-D-glucopyranoside at a dose of 0.01 g/kg and metformin at a dose of 0.01 g/kg were simultaneously gavaged per day for the limonin 17-β-D-glucopyranoside/metformin combination group, isolimonic acid 17-β-D-glucopyranoside at a dose of 0.01 g/kg and metformin at a dose of 0.01 g/kg were simultaneously gavaged per day for the isolimonic acid 17-β-D-glucopyranoside/metformin combination group, the gavage volume was 10 mL/kg, and the normal group and the model group were administrated with 10 mL/kg of distilled water. […] SPSS 16.0 software was used for statistical analysis. The data were expressed as mean and standard deviation. The data before and after were analyzed by t-test, and P<0.05 was considered statistically significant.

[2] = tested on: ICR mice; test: Body weight, triglycerides and total cholesterol in obesity mouse model (Example 6); details: high-fat feed ICR mice, single administration 0.1 g/kg per day by gavage, two weeks
Text: Effects of a Limonoid Compound, Metformin or a Combination Thereof on Body Weight, Triglycerides, and Total Cholesterol in an Obesity Mouse Model
In this example, ICR mice were used to complete the experiment for evaluation of lipid lowering and weight loss in animals (body weight, serum cholesterol, and serum triglycerides).
In this example, the limonoid compound was nomilin, and a metformin single administration group, nomilin single administration group, and metformin/nomilin combination administration groups (dose A and B groups) were set, respectively.
Conditions of experimental feeding: ICR mice, purchased from the Animal Center of Zhejiang Academy of Medical Sciences, half male and half female, body weight (20±2 g), fed with basic feed provided by the Animal Center of Zhejiang Medical Academy. It should be noted that the conditions for raising the mice were as follows: the temperature was 23±1° C., the humidity was 55±10%, the lights were turned on between 7 am and 7 pm (the lights were turned off at other time), and the mice were allowed to access to water and feed freely. The daily feeding and management of the animals were under the responsibility of the animal security department, which provided the animals with sufficient padding and fresh drinking water daily.
The ICR mice were randomly divided into the normal group and the high-fat feed group, according to body weight. The normal group was fed with ordinary feed from the beginning to the end of the experiment.
Gavage dose: nomilin at a dose of 0.1 g/kg was gavaged per day for the nomilin group, metformin at a dose of 0.1 g/kg was gavaged per day for the metformin group, nomilin at a dose of 0.05 g/kg and metformin at a dose of 0.05 g/kg were simultaneously gavaged per day for the combination dose group A, nomilin at a dose of 0.1 g/kg and metformin at a dose of 0.1 g/kg were simultaneously gavaged per day for the combination dose group B, the gavage volume was 10 mL/kg, and the normal group and the model group were administrated with 10 mL/kg of distilled water. Two weeks later, the mice were weighed, blood sampled from orbital cavity, measured to determine serum total cholesterol and triglyceride levels, and the average values of each group were obtained. SPSS 16.0 software was used for statistical analysis. The data were expressed as mean and standard deviation. The data before and after were analyzed by t-test, and P<0.05 was considered statistically significant.

[3] = tested on: db/db mice; test: Blood glucose and leptin in mouse model of type II diabetes (Example 2); details: single administration 0.04 g/kg per day by gavage, two weeks
Text: Effects of a Limonoid Compound, Metformin or a Combination Thereof on Blood Glucose and Leptin in a Mouse Model of Type II Diabetes In the present example, db/db mice (line name BKS.Cg-Dock7^m+/+ Lepr^db/Nju) were used to perform hypoglycemic efficacy evaluation test of animals (blood glucose level and leptin). […] Conditions for experimental feeding: as type II diabetes model mice, 6-week-old SPF-grade db/db mice were purchased from the Nanjing Model Biology Institute, and subjected to experimental feeding after 7 days of preliminary feeding. […] The experimental feed was mouse growth-stable feed (GB […]), and the daily feeding and management of the animals were under the responsibility of the animal security department, which provided the animals with sufficient padding and fresh drinking water daily. Experimental grouping: male db/db mice (20±2 g) were selected, and 18 male mice in each group were tested. […] Gavage doses: obacunone at a dose of 0.04 g/kg was gavaged per day for the obacunone group, isoobacunoic acid at a dose of 0.04 g/kg was gavaged per day for the isoobacunoic acid group, obacunone 17-β-D-glucopynoside at a dose of 0.04 g/kg was gavaged per day for the obacunone 17-β-D-glucopynoside group, metformin at a dose of 0.04 g/kg was gavaged per day for the metformin group, obacunone at a dose of 0.02 g/kg and metformin at a dose of 0.02 g/kg were simultaneously gavaged per day for the obacunone/metformin combination group, isoobacunoic acid at a dose of 0.02 g/kg and metformin at a dose of 0.02 g/kg were simultaneously gavaged per day for the isoobacunoic acid/metformin combination group, obacunone 17-β-D-glucopynoside at a dose of 0.02 g/kg and metformin at a dose of 0.02 g/kg were simultaneously gavaged per day for the obacunone 17-β-D-glucopynoside/metformin combination group, the gavage volume was 10 mL/kg, and the normal group and the model group were administrated with 10 mL/kg of distilled water. […] The data were expressed as mean and standard deviation. The data before and after were analyzed by t-test, and P<0.05 was considered statistically significant.

CN(C)C(=N)NC(=N)N [Metformin, N,N-dimethylimidodicarbonimidic diamide, reference compound]
Blood glucose value [1]: 22.6 ± 3.9 mmol/L
Body weight gaining rate [2]: 11.56%
Total cholesterol ([2]; serum): 3.35 ± 0.07 mmol/L
Triglycerides ([2]; serum): 1.17 ± 0.30 mmol/L
Leptin ([3]; serum, Elisa): 34.49 ± 3.38 pg/mL
Blood glucose value ([3]; 1 h after last administration): 15.5 ± 3.6 mmol/L

Source: US11679097B2, “Combination product containing limonoid compound and biguanide compound” (ZHEJIANG YANGSHENGTANG INSTITUTE OF NATURAL MEDICATION CO., …, priority 2017, dated 2023)
